Test results reported in PubChem BioAssay (NCI).
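GI50: concentration for 50% inhibition of growth. TGI is the concentration that stops growth completely.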

Assays:
Assay in all cases: growth of human tumour cells (NCI), 384-well format
MDA-MB-435 melanoma = test system: MDA-MB-435 melanoma
SNB-19 CNS = test system: SNB-19 CNS
NCI/ADR-RES ovarian = test system: NCI/ADR-RES ovarian
SNB-75 CNS = test system: SNB-75 CNS
NCI-H23 lung = test system: NCI-H23 lung
NCI-H460 NSCLC = test system: NCI-H460 NSCLC
OVCAR-8 ovarian = test system: OVCAR-8 ovarian
A498 renal = test system: A498 renal
HOP-92 NSCLC = test system: HOP-92 NSCLC
T-47D breast = test system: T-47D breast
NCI-H522 lung = test system: NCI-H522 lung
SN12C renal = test system: SN12C renal
CCRF-CEM leukemia = test system: CCRF-CEM leukemia
SK-OV-3 ovarian = test system: SK-OV-3 ovarian
SF-539 CNS = test system: SF-539 CNS
BT-549 breast = test system: BT-549 breast
SK-MEL-5 melanoma = test system: SK-MEL-5 melanoma
PC-3 prostate = test system: PC-3 prostate
CAKI-1 renal = test system: CAKI-1 renal
OVCAR-5 ovarian = test system: OVCAR-5 ovarian
K-562 leukemia = test system: K-562 leukemia
SF-295 CNS = test system: SF-295 CNS
HS 578T breast = test system: HS 578T breast
HCT-15 colon = test system: HCT-15 colon
SW-620 colon = test system: SW-620 colon
SR leukemia = test system: SR leukemia
NCI-H322M lung = test system: NCI-H322M lung
RPMI-8226 leukemia = test system: RPMI-8226 leukemia
SF-268 CNS = test system: SF-268 CNS
HL-60(TB) leukemia = test system: HL-60(TB) leukemia
HOP-62 NSCLC = test system: HOP-62 NSCLC
NCI-H226 lung = test system: NCI-H226 lung
EKVX NSCLC = test system: EKVX NSCLC
IGROV1 ovarian = test system: IGROV1 ovarian
MOLT-4 leukemia = test system: MOLT-4 leukemia
TK-10 renal = test system: TK-10 renal
MCF7 breast = test system: MCF7 breast
HT29 colon = test system: HT29 colon
786-0 renal = test system: 786-0 renal
UO-31 renal = test system: UO-31 renal
A549 NSCLC = test system: A549 NSCLC
OVCAR-3 ovarian = test system: OVCAR-3 ovarian
MDA-MB-468 breast = test system: MDA-MB-468 breast
OVCAR-4 ovarian = test system: OVCAR-4 ovarian
ACHN renal = test system: ACHN renal
HCC-2998 colon = test system: HCC-2998 colon
U251 glioblastoma = test system: U251 glioblastoma
MDA-MB-231 breast = test system: MDA-MB-231 breast

Cc1ncc(CCCN(C)C)cc1Nc1ncc2c(n1)-c1ccc(C(F)(F)F)cc1NC(=S)C2
GI50 (MDA-MB-435 melanoma): < 10 nM | TGI (MDA-MB-435 melanoma): < 10 nM | GI50 (SNB-19 CNS): < 10 nM | TGI (SNB-19 CNS): 641 nM | GI50 (NCI/ADR-RES ovarian): 31.4 nM | TGI (NCI/ADR-RES ovarian): 179 nM | GI50 (SNB-75 CNS): < 10 nM | TGI (SNB-75 CNS): 15.2 nM | GI50 (NCI-H23 lung): < 10 nM | TGI (NCI-H23 lung): < 10 nM | GI50 (NCI-H460 NSCLC): < 10 nM | TGI (NCI-H460 NSCLC): < 10 nM | GI50 (OVCAR-8 ovarian): < 10 nM | TGI (OVCAR-8 ovarian): < 10 nM | GI50 (A498 renal): < 10 nM | TGI (A498 renal): 12700 nM | GI50 (HOP-92 NSCLC): < 10 nM | TGI (HOP-92 NSCLC): 6280 nM | GI50 (T-47D breast): 37.5 nM | TGI (T-47D breast): 15100 nM | GI50 (NCI-H522 lung): < 10 nM | TGI (NCI-H522 lung): < 10 nM | GI50 (SN12C renal): 138 nM | TGI (SN12C renal): 3470 nM | GI50 (CCRF-CEM leukemia): < 10 nM | TGI (CCRF-CEM leukemia): < 10 nM | GI50 (SK-OV-3 ovarian): < 10 nM | TGI (SK-OV-3 ovarian): 1690 nM | GI50 (SF-539 CNS): < 10 nM | TGI (SF-539 CNS): 117 nM | GI50 (BT-549 breast): < 10 nM | TGI (BT-549 breast): 37.1 nM | GI50 (SK-MEL-5 melanoma): < 10 nM | TGI (SK-MEL-5 melanoma): 12.7 nM | GI50 (PC-3 prostate): < 10 nM | TGI (PC-3 prostate): 14300 nM | GI50 (CAKI-1 renal): 59.2 nM | TGI (CAKI-1 renal): 12900 nM | GI50 (OVCAR-5 ovarian): < 10 nM | TGI (OVCAR-5 ovarian): 173 nM | GI50 (K-562 leukemia): < 10 nM | TGI (K-562 leukemia): < 10 nM | GI50 (SF-295 CNS): < 10 nM | TGI (SF-295 CNS): 17.1 nM | GI50 (HS 578T breast): < 10 nM | TGI (HS 578T breast): 21.5 nM | GI50 (HCT-15 colon): < 10 nM | TGI (HCT-15 colon): 35.1 nM | GI50 (SW-620 colon): < 10 nM | TGI (SW-620 colon): 14.8 nM | GI50 (SR leukemia): < 10 nM | TGI (SR leukemia): < 10 nM | GI50 (NCI-H322M lung): 4460 nM | TGI (NCI-H322M lung): 19800 nM | GI50 (RPMI-8226 leukemia): < 10 nM | TGI (RPMI-8226 leukemia): < 10 nM | GI50 (SF-268 CNS): < 10 nM | TGI (SF-268 CNS): 1990 nM | GI50 (HL-60(TB) leukemia): < 10 nM | TGI (HL-60(TB) leukemia): < 10 nM | GI50 (HOP-62 NSCLC): < 10 nM | TGI (HOP-62 NSCLC): 37 nM | GI50 (NCI-H226 lung): 512 nM | TGI (NCI-H226 lung): 6710 nM | GI50 (EKVX NSCLC): 11.6 nM | TGI (EKVX NSCLC): 17800 nM | GI50 (IGROV1 ovarian): < 10 nM | TGI (IGROV1 ovarian): 16100 nM | GI50 (MOLT-4 leukemia): < 10 nM | TGI (MOLT-4 leukemia): < 10 nM | GI50 (TK-10 renal): 1730 nM | TGI (TK-10 renal): 19700 nM | GI50 (MCF7 breast): < 10 nM | TGI (MCF7 breast): 2270 nM | GI50 (HT29 colon): < 10 nM | TGI (HT29 colon): < 10 nM | GI50 ([…]-0 renal): < 10 nM | TGI (786-0 renal): 305 nM | GI50 (UO-31 renal): 99 nM | TGI (UO-31 renal): 19800 nM | GI50 (A549 NSCLC): < 10 nM | TGI (A549 NSCLC): 170 nM | GI50 (OVCAR-3 ovarian): < 10 nM | TGI (OVCAR-3 ovarian): < 10 nM | GI50 (MDA-MB-468 breast): < 10 nM | TGI (MDA-MB-468 breast): < 10 nM | GI50 (OVCAR-4 ovarian): < 10 nM | TGI (OVCAR-4 ovarian): 13200 nM | GI50 (ACHN renal): 44.4 nM | TGI (ACHN renal): 15300 nM | GI50 (HCC-2998 colon): < 10 nM | TGI (HCC-2998 colon): 13.9 nM | GI50 (U251 glioblastoma): < 10 nM | TGI (U251 glioblastoma): 11200 nM | GI50 (MDA-MB-231 breast): < 10 nM | TGI (MDA-MB-231 breast): 12200 nM
